From the NIST ThermoML archive (doi:10.1016/j.jct.2015.06.024)

Assay: mn = molality of the nth substance listed, in mol/kg
Details: 84.5 kPa, Liquid; for speed of sound: Frequency=3 MHz, Sing-around technique in a fixed-path interferometer; for mass density: Vibrating tube method

CCO [ethanol] + O
Details	mass density, 288.15 K [kg/m3]	mass density, 293.15 K [kg/m3]	mass density, 298.15 K [kg/m3]	mass density, 303.15 K [kg/m3]	mass density, 308.15 K [kg/m3]	speed of sound, 288.15 K [m/s]	speed of sound, 293.15 K [m/s]	speed of sound, 298.15 K [m/s]	speed of sound, 303.15 K [m/s]	speed of sound, 308.15 K [m/s]
m1 = 0.02159	998.9	998.003	996.845	995.446	993.829	1467.4	1483.4	1497.5	1509.8	1520.4
m1 = 0.04347	998.707	997.81	996.654	995.257	993.639	1468.2	1484.2	1498.2	1510.5	1521
m1 = 0.06495	998.526	997.632	996.474	995.076	993.46	1469.1	1485	1498.9	1511.1	1521.6
m1 = 0.08646	998.318	997.424	996.265	994.87	993.243	1470	1485.8	1499.7	1511.7	1522.2
m1 = 0.1087	998.132	997.24	996.081	994.683	993.05	1470.8	1486.5	1500.4	1512.4	1522.8
m1 = 0.1306	997.942	997.051	995.892	994.494	992.873	1471.7	1487.3	1501.1	1513	1523.3
m1 = 0.1749	997.562	996.671	995.508	994.111	992.498	1473.4	1488.9	1502.5	1514.2	1524.4
m1 = 0.2188	997.195	996.303	995.144	993.747	992.123	1475	1490.4	1503.8	1515.5	1525.5

CCCCO [butan-1-ol] + O
Details	mass density, 288.15 K [kg/m3]	mass density, 293.15 K [kg/m3]	mass density, 298.15 K [kg/m3]	mass density, 303.15 K [kg/m3]	mass density, 308.15 K [kg/m3]	speed of sound, 288.15 K [m/s]	speed of sound, 293.15 K [m/s]	speed of sound, 298.15 K [m/s]	speed of sound, 303.15 K [m/s]	speed of sound, 308.15 K [m/s]
m1 = 0.01342	998.939	998.039	996.876	995.476	993.859	1467.6	1483.6	1497.7	1510	1520.6
m1 = 0.02701	998.774	997.873	996.708	995.306	993.686	1468.7	1484.7	1498.7	1510.9	1521.3
m1 = 0.04053	998.614	997.712	996.547	995.143	993.508	1469.9	1485.7	1499.6	1511.7	1522.2
m1 = 0.05431	998.455	997.552	996.384	994.976	993.352	1471	1486.7	1500.5	1512.5	1522.9
m1 = 0.06771	998.296	997.389	996.218	994.809	993.182	1472.1	1487.7	1501.4	1513.3	1523.6
m1 = 0.08132	998.137	997.231	996.058	994.647	992.992	1473.1	1488.6	1502.3	1514.1	1524.4
m1 = 0.1063	997.846	996.934	995.757	994.341	992.707	1475.1	1490.5	1504	1515.7	1525.7
m1 = 0.1358	997.518	996.602	995.417	993.998	992.357	1477.4	1492.5	1505.8	1517.4	1527.2

O=C(O)[C@@H]1CCCN1 [L-proline] + O
Details	mass density, 288.15 K [kg/m3]	mass density, 293.15 K [kg/m3]	mass density, 298.15 K [kg/m3]	mass density, 303.15 K [kg/m3]	mass density, 308.15 K [kg/m3]	speed of sound, 288.15 K [m/s]	speed of sound, 293.15 K [m/s]	speed of sound, 298.15 K [m/s]	speed of sound, 303.15 K [m/s]	speed of sound, 308.15 K [m/s]
m1 = 0.04355	1000.55	999.631	998.453	997.041	995.413	1470.3	1486.1	1500.1	1512.3	1522.8
m1 = 0.05237	1000.84	999.916	998.737	997.322	995.693	1471	1486.8	1500.8	1512.9	1523.4
m1 = 0.06122	1001.13	1000.21	999.025	997.607	995.975	1471.7	1487.6	1501.5	1513.6	1524
m1 = 0.06959	1001.41	1000.48	999.295	997.877	996.241	1472.5	1488.2	1502.1	1514.2	1524.6
m1 = 0.07882	1001.71	1000.78	999.588	998.167	996.529	1473.2	1488.9	1502.8	1514.8	1525.2
m1 = 0.08768	1002	1001.07	999.877	998.452	996.813	1474	1489.6	1503.5	1515.4	1525.8
m1 = 0.09661	1002.3	1001.36	1000.16	998.734	997.093	1474.7	1490.3	1504.1	1516.1	1526.4
m1 = 0.1056	1002.59	1001.65	1000.45	999.02	997.377	1475.4	1491	1504.7	1516.7	1526.9
m1 = 0.1234	1003.17	1002.23	1001.02	999.585	997.937	1476.8	1492.3	1506	1517.9	1528.1
m1 = 0.1414	1003.76	1002.8	1001.59	1000.15	998.498	1478.3	1493.7	1507.3	1519.1	1529.3
m1 = 0.1591	1004.34	1003.37	1002.15	1000.71	999.051	1479.8	1495.2	1508.7	1520.5	1530.6
m1 = 0.1775	1004.93	1003.96	1002.74	1001.28	999.622	1481.3	1496.6	1510.1	1521.8	1531.8
m1 = 0.1955	1005.51	1004.53	1003.3	1001.85	1000.18	1482.8	1498	1511.4	1523	1533
m1 = 0.2134	1006.09	1005.1	1003.87	1002.4	1000.73	1484.2	1499.4	1512.6	1524.2	1534.1

CCCO [propan-1-ol] + O
Details	mass density, 288.15 K [kg/m3]	mass density, 293.15 K [kg/m3]	mass density, 298.15 K [kg/m3]	mass density, 303.15 K [kg/m3]	mass density, 308.15 K [kg/m3]	speed of sound, 288.15 K [m/s]	speed of sound, 293.15 K [m/s]	speed of sound, 298.15 K [m/s]	speed of sound, 303.15 K [m/s]	speed of sound, 308.15 K [m/s]
m1 = 0.01666	998.928	998.029	996.868	995.468	993.851	1467.6	1483.5	1497.7	1509.9	1520.5
m1 = 0.03333	998.757	997.859	996.698	995.295	993.677	1468.6	1484.5	1498.5	1510.7	1521.3
m1 = 0.0494	998.594	997.697	996.534	995.132	993.506	1469.5	1485.4	1499.3	1511.5	1521.9
m1 = 0.06674	998.419	997.52	996.356	994.954	993.328	1470.6	1486.4	1500.3	1512.3	1522.7
m1 = 0.08313	998.254	997.355	996.19	994.787	993.156	1471.7	1487.3	1501.1	1513.1	1523.3
m1 = 0.1002	998.081	997.18	996.013	994.609	992.983	1472.7	1488.3	1502	1513.8	1524
m1 = 0.134	997.747	996.843	995.676	994.267	992.634	1474.8	1490.1	1503.6	1515.4	1525.4
m1 = 0.1662	997.429	996.526	995.356	993.945	992.305	1476.8	1491.9	1505.3	1516.9	1526.8
